Assay in all cases: NCI-60 cell line screen, 48 h
For assay [1], the system named is SK-OV-3 ovarian.
The subject of assay [2] is SR leukemia.
Assay [3] deals with HT29 colon.
Assay [4] concerns K-562 leukemia.
Assay [5] has as its system T-47D breast.
Assay [6] concerns EKVX NSCLC.
The test system of assay [7] is M14 melanoma.
In assay [8] the test system is TK-10 renal.
In assay [9] the test system is LOX IMVI melanoma.
Assay [10] relates to OVCAR-4 ovarian.
Assay [11] concerns HL-60(TB) leukemia.
The subject of assay [12] is HCC-2998 colon.
The subject of assay [13] is OVCAR-3 ovarian.
Assay [14] relates to HS 578T breast.
Assay [15] relates to 786-0 renal.
The subject of assay [16] is OVCAR-8 ovarian.
For assay [17], the system named is HCT-15 colon.
The subject of assay [18] is SN12C renal.
Assay [19] has as its system UACC-62 melanoma.
In assay [20] the test system is COLO 205 colon.

Experimental findings from PubChem BioAssay (NCI) are described below.

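These data come from cells grown in 96-well plates and exposed to compound for 48 hours at five concentrations. TGI is the concentration that stops growth completely.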

On to `CC1=NN(c2cccc(Cl)c2)C(=N/c2nc3ccccc3s2)/C1=C\c1cccs1`, for which the TGI was over 100 µM in assay [1]; 64.8 µM in [2]; over 100 µM in assay [3]; 93.4 µM in assay [4]; over 100 µM in [5]; over 100 µM in [6]. The TGI is over 100 µM in assay [7]; over 100 µM in [8]; over 100 µM in assay [9]; over 100 µM in assay [10]; 30.6 µM in [11]; over 100 µM in assay [12]. Further, the TGI was 45.5 µM in assay [13]; 73 µM in assay [14]; over 100 µM in assay [15]; over 100 µM in [16]; over 100 µM in [17].

Consider `O=P(c1ccccc1)(c1ccccc1)c1ccc2c(c1)OCCOCCOCCOCCO2`, for which the TGI in [1], in assay [18], in assay [2], in [4], in [5] and in assay [6] was over 100 µM throughout. For the same molecule, the TGI in assay [7], in assay [8], in assay [9], in [11], in [12] and in assay [19] was over 100 µM throughout. Also, the TGI in [20], in [14], in assay [15], in [16] and in [17] was over 100 µM each time.

With `COc1ccc2c(c1)CCN1CCCc3ccc(OC)cc3C21` (configuration not stated), the TGI in [1], in [18], in assay [2], in assay [3], in assay [4] and in assay [5] was over 100 µM in each case. Also, the TGI in assay [6], in assay [7], in [8], in [9], in assay [10] and in assay [12] was over 100 µM each time. For the same molecule, the TGI in assay [13], in assay [19], in [20], in assay [14], in assay [15] and in [16] was over 100 µM each time. The same molecule displayed a TGI in assay [17] of over 100 µM.

As for `C(=NCCCN1CCN(CCCN=Cc2cccc3ccccc23)CC1)c1cccc2ccccc12`, the TGI in assay [1], in [18], in assay [2], in [3], in assay [4] and in [5] was over 100 µM in each case. Also, the TGI in assay [6], in assay [7], in [8], in assay [9], in assay [10] and in assay [12] was over 100 µM throughout. Besides, the TGI in assay [13], in [19], in [20], in [14], in assay [15] and in assay [16] was over 100 µM in each case. In assay [17], the TGI is over 100 µM.

Take `CC1OC(OC2C(CO)OC(O[C@H]3CC[C@@]4(C)C(=CC[C@H]5[C@@H]6C[C@@H]7O[C@](O)(CC[C@H](C)COC8OC(CO)C(O)C(O)C8O)[C@@H](C)[C@@H]7[C@@]6(C)CC[C@@H]54)C3)C(OC3OC(C)C(O)C(O)C3O)C2O)C(O)C(O)C1O` (some centres not stated): the TGI in assay [1] was 6.12 µM; in assay [18], over 26 µM; in assay [2], over 100 µM; in [3] it was over 100 µM; in [4] it was over 33.4 µM; in assay [5] it was 17 µM. Moreover, the TGI is over 100 µM in [6]; over 100 µM in [8]; 4.9 µM in assay [9]; 28.8 µM in assay [10]; over 100 µM in assay [11]; over 37.9 µM in assay [12]. The TGI in assay [13] is over 29.3 µM; in assay [19], over 50.4 µM; in assay [20] it was over 35.5 µM; in assay [14], 6.71 µM; in [15], 5.72 µM; in assay [16], 28.9 µM. This molecule gave a TGI in assay [17] of 10 µM.

Regarding `O=[N+]([O-])c1ccc(N/N=C(\c2ccccc2)c2ccccn2)nc1`, the TGI was 24 µM in assay [1]; over 68.9 µM in assay [18]; over 83.7 µM in assay [2]; over 100 µM in [3]; over 100 µM in assay [4]; 26.9 µM in assay [5]. Further, the TGI is 17.3 µM in [6]; 13.8 µM in [7]; over 100 µM in [10]; 31.7 µM in assay [11]; over 59.6 µM in assay [12]; 23.3 µM in assay [13]. The TGI in [19] is over 54.3 µM; in assay [20], over 60 µM; in [14], 26 µM; in [15], 23.4 µM; in assay [16], 23.8 µM; in assay [17], over 28.5 µM.

Turning to `O=[N+]([O-])C(=C(N1CCCCC1)N1CCCCC1)/C(Cl)=C(\Cl)[N+](=O)[O-]`, the TGI was over 59.8 µM in assay [1]; 4.8 µM in assay [18]; over 100 µM in assay [2]; 12.5 µM in assay [3]; over 100 µM in assay [4]; 3.88 µM in [5]. Besides, the TGI in assay [6] amounted to 30 µM; in assay [7] it was 21.7 µM; in [8] it was 10.1 µM; in assay [9], 5.13 µM; in assay [10], 22.8 µM; in [12] it was 55.6 µM. Further, the TGI in assay [13] was 10.7 µM; in assay [19], 29.2 µM; in assay [20], 11.5 µM; in assay [14], 11.6 µM; in assay [15], 10.2 µM; in assay [16] it was 23.2 µM. For the same molecule, the TGI in assay [17] was 5.48 µM.

For `O=[N+]([O-])c1cc(-c2nnc(C34CC5CC(CC(C5)C3)C4)o2)cc([N+](=O)[O-])c1`, the TGI in assay [1] was over 100 µM; in [18], over 100 µM; in assay [2] it was over 100 µM; in assay [3], 32.2 µM; in [4], over 100 µM; in assay [5], over 100 µM. The TGI was over 100 µM in [6]; 70.4 µM in assay [7]; over 100 µM in assay [9]; over 100 µM in [10]; over 100 µM in [11]; over 100 µM in assay [12]. For the same molecule, the TGI was over 100 µM in [13]; over 100 µM in [19]; 42.4 µM in [20]; over 100 µM in assay [14]; over 100 µM in assay [15]; over 100 µM in assay [16]. For the same molecule, the TGI in assay [17] is over 100 µM.

As for `Cc1coc2c1C(=O)C(=O)c1c-2ccc2c1CCCC2(C)C`, the TGI in assay [1] is over 100 µM; in assay [18], over 30.1 µM; in assay [2], 7.03 µM; in assay [3], 42.4 µM; in [4], 11.5 µM; in assay [5], over 100 µM. For the same molecule, the TGI in assay [6] was over 100 µM; in [7], 2.46 µM; in assay [8], over 85.8 µM; in [9], 1.9 µM; in assay [10] it was over 100 µM; in [12], 21.7 µM. Moreover, the TGI in assay [13] is 1.47 µM; in [19] it was 3.32 µM; in assay [20], 22.5 µM; in [14], over 31.4 µM; in assay [15], 8.62 µM; in assay [16] it was over 100 µM. The molecule further had a TGI in [17] of 6.4 µM.

`C=C1CC2CC(=O)C(O)C(C1)C2` (configuration not stated): the TGI in [1], in assay [18], in assay [2], in assay [3], in [4] and in assay [5] was over 100 µM each time. Also, the TGI in assay [6], in assay [7], in assay [8], in [9], in assay [11] and in assay [12] was over 100 µM each time. Also, the TGI in [13], in assay [19], in [20], in assay [14], in [15] and in assay [16] was over 100 µM each time. The TGI in assay [17] is over 100 µM.

Take `COC(=O)c1cc(C)ccc1C1CN=NC12Cc1cccc(C)c1C2=O` (configuration not stated): the TGI in [18] was over 100 µM; in assay [2], over 100 µM; in assay [3], over 100 µM; in assay [4], over 100 µM; in assay [5] it was 35.6 µM; in assay [6], 95.6 µM. Moreover, the TGI in [7] is 38.9 µM; in [8], over 100 µM; in [9], 53 µM; in assay [10], over 100 µM; in [11] it was 32.8 µM; in assay [12] it was over 100 µM. Besides, the TGI in assay [13], in assay [14], in [15], in assay [16] and in assay [17] was over 100 µM throughout.
